Data as given in patent US10251395B2, “Substituted furano-/thienocycloalkylamino-2-pyrimidine derivatives and use thereof for controlling undesired plant growth” (Bayer CropScience Aktiengesellschaft, priority 2015, dated 2019).

Assays:
logP (HCOOH) = assay type: physicochemical; details: HCOOH
Description: Table 2 (physicochemical characterization of selected synthesis examples)

Setaria viridis [1] = test: Post-emergence herbicidal effect; assay type: in vivo; details: assessed visually after about 3 weeks vs untreated controls
In short: (§1)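 Greenhouse weeds grown in sandy loam were sprayed at the one-leaf stage, 2–3 weeks after sowing, with WP or EC formulations in 600–800 L/ha water plus 0.2% wetting agent. Damage was scored visually after about 3 weeks as percent activity relative to untreated controls, where 100% means the plants died.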

Stellaria media [2] = test: Post-emergence herbicidal effect; assay type: in vivo; details: assessed visually after about 3 weeks vs untreated controls
In short: as §1

Polygonum convolvulus [3] = test: Post-emergence herbicidal effect; assay type: in vivo; details: assessed visually after about 3 weeks vs untreated controls
In short: as §1

Alopecurus myosuroides [4] = test: Post-emergence herbicidal effect; assay type: in vivo; details: 320 g/ha, assessed visually after about 3 weeks vs untreated controls
In short: as §1

Amaranthus retroflexus [5] = test: Post-emergence herbicidal effect; assay type: in vivo; details: assessed visually after about 3 weeks vs untreated controls
In short: as §1

Ipomoea purpurea = test: Post-emergence herbicidal effect; assay type: in vivo; details: assessed visually after about 3 weeks vs untreated controls
In short: as §1

Matricaria inodora [6] = test: Post-emergence herbicidal effect; assay type: in vivo; details: assessed visually after about 3 weeks vs untreated controls
In short: as §1

Avena fatua [7] = test: Post-emergence herbicidal effect; assay type: in vivo; details: 320 g/ha, assessed visually after about 3 weeks vs untreated controls
In short: as §1

Viola tricolor [8] = test: Post-emergence herbicidal effect; assay type: in vivo; details: assessed visually after about 3 weeks vs untreated controls
In short: as §1

Echinochloa crus-galli [9] = test: Post-emergence herbicidal effect; assay type: in vivo; details: assessed visually after about 3 weeks vs untreated controls
In short: as §1

Abutilon theophrasti [10] = test: Post-emergence herbicidal effect; assay type: in vivo; details: assessed visually after about 3 weeks vs untreated controls
In short: as §1

Lolium multiflorum [11] = test: Post-emergence herbicidal effect; assay type: in vivo; details: 320 g/ha, assessed visually after about 3 weeks vs untreated controls
In short: as §1

Veronica persica [12] = test: Pre-emergence herbicidal effect; assay type: in vivo; details: scored visually after 3 weeks
In short: (§2)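 Seeds sown in sandy loam and covered with soil; WP or EC formulations sprayed onto the soil surface as aqueous suspension/emulsion at 600 to 800 L/ha water with 0.2% wetting agent. Greenhouse-grown; damage scored visually after 3 weeks against untreated controls (100% = plants dead, 0% = like control).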

Setaria viridis [13] = test: Pre-emergence herbicidal effect; assay type: in vivo; details: scored visually after 3 weeks
In short: as §2

Stellaria media [14] = test: Pre-emergence herbicidal effect; assay type: in vivo; details: scored visually after 3 weeks
In short: as §2

Polygonum convolvulus [15] = test: Pre-emergence herbicidal effect; assay type: in vivo; details: scored visually after 3 weeks
In short: as §2

Alopecurus myosuroides [16] = test: Pre-emergence herbicidal effect; assay type: in vivo; details: scored visually after 3 weeks
In short: as §2

Amaranthus retroflexus [17] = test: Pre-emergence herbicidal effect; assay type: in vivo; details: scored visually after 3 weeks
In short: as §2

Matricaria inodora [18] = test: Pre-emergence herbicidal effect; assay type: in vivo; details: scored visually after 3 weeks
In short: as §2

Avena fatua [19] = test: Pre-emergence herbicidal effect; assay type: in vivo; details: scored visually after 3 weeks
In short: as §2

Viola tricolor [20] = test: Pre-emergence herbicidal effect; assay type: in vivo; details: scored visually after 3 weeks
In short: as §2

Echinochloa crus-galli [21] = test: Pre-emergence herbicidal effect; assay type: in vivo; details: scored visually after 3 weeks
In short: as §2

Abutilon theophrasti [22] = test: Pre-emergence herbicidal effect; assay type: in vivo; details: scored visually after 3 weeks
In short: as §2

Lolium multiflorum [23] = test: Pre-emergence herbicidal effect; assay type: in vivo; details: scored visually after 3 weeks
In short: as §2

Veronica persica [24] = test: Post-emergence herbicidal effect; assay type: in vivo; details: assessed visually after about 3 weeks vs untreated controls
In short: as §1

In the case of `Nc1nc(NC2CCc3sc(Cl)cc32)ncc1C(F)(F)F` (racemic) [compound 256], the “logP (HCOOH)” value (logP (HCOOH)) is reported as “solid; logP (HCOOH): 2.30; 1H NMR (CDCl3, 400 MHZ, δ in ppm): 2.15 (m, 1H, 1H”, the “post-emergence efficacy SETVI” value (Setaria viridis [1]; 80 g/ha) is reported as 90% and the “post-emergence efficacy SETVI” value (Setaria viridis [1]; 320 g/ha) is reported as 90%. The “post-emergence efficacy STEME” value (Stellaria media [2]; 80 g/ha) was 100%, the “post-emergence efficacy STEME” value (Stellaria media [2]; 320 g/ha) was 100% and the “post-emergence efficacy POLCO” value (Polygonum convolvulus [3]; 80 g/ha) was 90%. For the same compound, the “post-emergence efficacy POLCO” value (Polygonum convolvulus [3]; 320 g/ha) was 90%, the “post-emergence efficacy ALOMY” value (Alopecurus myosuroides [4]) was 90% and the “post-emergence efficacy AMARE” value (Amaranthus retroflexus [5]; 80 g/ha) was 100%. For the same compound, the “post-emergence efficacy AMARE” value (Amaranthus retroflexus [5]; 320 g/ha) was 100%, the “post-emergence efficacy PHBPU” value (Ipomoea purpurea; 320 g/ha) was 100% and the “post-emergence efficacy MATIN” value (Matricaria inodora [6]; 80 g/ha) was 100%. The “post-emergence efficacy MATIN” value (Matricaria inodora [6]; 320 g/ha) was 100%, the “post-emergence efficacy AVEFA” value (Avena fatua [7]) was 70% and the “post-emergence efficacy VIOTR” value (Viola tricolor [8]; 80 g/ha) was 90%. For the same compound, the “post-emergence efficacy VIOTR” value (Viola tricolor [8]; 320 g/ha) was 90%, the “post-emergence efficacy ECHCG” value (Echinochloa crus-galli [9]; 80 g/ha) was 100% and the “post-emergence efficacy ECHCG” value (Echinochloa crus-galli [9]; 320 g/ha) was 100%. The “post-emergence efficacy ABUTH” value (Abutilon theophrasti [10]; 80 g/ha) was 90%, the “post-emergence efficacy ABUTH” value (Abutilon theophrasti [10]; 320 g/ha) was 90% and the “post-emergence efficacy LOLMU” value (Lolium multiflorum [11]) was 70%. The “VERPE pre-emergence efficacy (herbicidal activity)” value (from here on “VERPE pre-emergence efficacy”) (Veronica persica [12]; Dosage 80 g/ha) was 100%, the “VERPE pre-emergence efficacy” value (Veronica persica [12]; Dosage 320 g/ha) was 100% and the “SETVI pre-emergence efficacy (herbicidal activity)” value (from here on “SETVI pre-emergence efficacy”) (Setaria viridis [13]; Dosage 80 g/ha) was 100%. The “SETVI pre-emergence efficacy” value (Setaria viridis [13]; Dosage 320 g/ha) was 100%, the “STEME pre-emergence efficacy (herbicidal activity)” value (from here on “STEME pre-emergence efficacy”) (Stellaria media [14]; Dosage 80 g/ha) was 100% and the “STEME pre-emergence efficacy” value (Stellaria media [14]; Dosage 320 g/ha) was 100%. The “POLCO pre-emergence efficacy (herbicidal activity)” value (from here on “POLCO pre-emergence efficacy”) (Polygonum convolvulus [15]; Dosage 80 g/ha) was 100%, the “POLCO pre-emergence efficacy” value (Polygonum convolvulus [15]; Dosage 320 g/ha) was 100% and the “ALOMY pre-emergence efficacy (herbicidal activity)” value (from here on “ALOMY pre-emergence efficacy”) (Alopecurus myosuroides [16]; Dosage 80 g/ha) was 60%. The “ALOMY pre-emergence efficacy” value (Alopecurus myosuroides [16]; Dosage 320 g/ha) was 100%, the “AMARE pre-emergence efficacy (herbicidal activity)” value (from here on “AMARE pre-emergence efficacy”) (Amaranthus retroflexus [17]; Dosage 80 g/ha) was 100% and the “AMARE pre-emergence efficacy” value (Amaranthus retroflexus [17]; Dosage 320 g/ha) was 100%. The “MATIN pre-emergence efficacy (herbicidal activity)” value (from here on “MATIN pre-emergence efficacy”) (Matricaria inodora [18]; Dosage 80 g/ha) was 100%, the “MATIN pre-emergence efficacy” value (Matricaria inodora [18]; Dosage 320 g/ha) was 100% and the “AVEFA pre-emergence efficacy (herbicidal activity)” value (from here on “AVEFA pre-emergence efficacy”) (Avena fatua [19]; Dosage 320 g/ha) was 100%. For the same compound, the “VIOTR pre-emergence efficacy (herbicidal activity)” value (“VIOTR pre-emergence efficacy” for short) (Viola tricolor [20]; Dosage 80 g/ha) was 100%, the “VIOTR pre-emergence efficacy” value (Viola tricolor [20]; Dosage 320 g/ha) was 100% and the “ECHCG pre-emergence efficacy (herbicidal activity)” value (from here on “ECHCG pre-emergence efficacy”) (Echinochloa crus-galli [21]; Dosage 80 g/ha) was 100%. For the same compound, the “ECHCG pre-emergence efficacy” value (Echinochloa crus-galli [21]; Dosage 320 g/ha) was 100%, the “ABUTH pre-emergence efficacy (herbicidal activity)” value (Abutilon theophrasti [22]; Dosage 320 g/ha) was 100% and the “LOLMU pre-emergence efficacy (herbicidal activity)” value (from here on “LOLMU pre-emergence efficacy”) (Lolium multiflorum [23]; Dosage 320 g/ha) was 100%.

For `Cc1cc2c(s1)CCCC2Nc1ncc(C(F)(F)F)c(N)n1` (racemic) [compound 11], the “post-emergence efficacy VERPE” value (Veronica persica [24]; 80 g/ha) was 80%, the “post-emergence efficacy VERPE” value (Veronica persica [24]; 320 g/ha) was 90% and the “post-emergence efficacy SETVI” value (Setaria viridis [1]; 80 g/ha) was 90%. The “post-emergence efficacy SETVI” value (Setaria viridis [1]; 320 g/ha) was 90%, the “post-emergence efficacy STEME” value (Stellaria media [2]; 80 g/ha) was 90% and the “post-emergence efficacy STEME” value (Stellaria media [2]; 320 g/ha) was 100%. The “post-emergence efficacy POLCO” value (Polygonum convolvulus [3]; 80 g/ha) was 90%, the “post-emergence efficacy POLCO” value (Polygonum convolvulus [3]; 320 g/ha) was 90% and the “post-emergence efficacy ALOMY” value (Alopecurus myosuroides [4]) was 90%. For the same compound, the “post-emergence efficacy AMARE” value (Amaranthus retroflexus [5]; 80 g/ha) was 90%, the “post-emergence efficacy AMARE” value (Amaranthus retroflexus [5]; 320 g/ha) was 90% and the “post-emergence efficacy PHBPU” value (Ipomoea purpurea; 80 g/ha) was 90%. For the same compound, the “post-emergence efficacy PHBPU” value (Ipomoea purpurea; 320 g/ha) was 90%, the “post-emergence efficacy MATIN” value (Matricaria inodora [6]; 80 g/ha) was 90% and the “post-emergence efficacy MATIN” value (Matricaria inodora [6]; 320 g/ha) was 100%. The “post-emergence efficacy AVEFA” value (Avena fatua [7]) was 80%, the “post-emergence efficacy VIOTR” value (Viola tricolor [8]; 80 g/ha) was 100% and the “post-emergence efficacy VIOTR” value (Viola tricolor [8]; 320 g/ha) was 100%. For the same compound, the “post-emergence efficacy ECHCG” value (Echinochloa crus-galli [9]; 80 g/ha) was 100%, the “post-emergence efficacy ECHCG” value (Echinochloa crus-galli [9]; 320 g/ha) was 100% and the “post-emergence efficacy ABUTH” value (Abutilon theophrasti [10]; 80 g/ha) was 100%. The “post-emergence efficacy ABUTH” value (Abutilon theophrasti [10]; 320 g/ha) was 100%, the “VERPE pre-emergence efficacy” value (Veronica persica [12]; Dosage 80 g/ha) was 100% and the “VERPE pre-emergence efficacy” value (Veronica persica [12]; Dosage 320 g/ha) was 100%. For the same compound, the “SETVI pre-emergence efficacy” value (Setaria viridis [13]; Dosage 80 g/ha) was 100%, the “SETVI pre-emergence efficacy” value (Setaria viridis [13]; Dosage 320 g/ha) was 100% and the “STEME pre-emergence efficacy” value (Stellaria media [14]; Dosage 80 g/ha) was 100%. The “STEME pre-emergence efficacy” value (Stellaria media [14]; Dosage 320 g/ha) was 100%, the “POLCO pre-emergence efficacy” value (Polygonum convolvulus [15]; Dosage 80 g/ha) was 100% and the “POLCO pre-emergence efficacy” value (Polygonum convolvulus [15]; Dosage 320 g/ha) was 100%. For the same compound, the “ALOMY pre-emergence efficacy” value (Alopecurus myosuroides [16]; Dosage 80 g/ha) was 90%, the “ALOMY pre-emergence efficacy” value (Alopecurus myosuroides [16]; Dosage 320 g/ha) was 100% and the “AMARE pre-emergence efficacy” value (Amaranthus retroflexus [17]; Dosage 80 g/ha) was 100%. The “AMARE pre-emergence efficacy” value (Amaranthus retroflexus [17]; Dosage 320 g/ha) was 100%, the “MATIN pre-emergence efficacy” value (Matricaria inodora [18]; Dosage 80 g/ha) was 100% and the “MATIN pre-emergence efficacy” value (Matricaria inodora [18]; Dosage 320 g/ha) was 100%. For the same compound, the “AVEFA pre-emergence efficacy” value (Avena fatua [19]; Dosage 80 g/ha) was 60%, the “AVEFA pre-emergence efficacy” value (Avena fatua [19]; Dosage 320 g/ha) was 90% and the “VIOTR pre-emergence efficacy” value (Viola tricolor [20]; Dosage 80 g/ha) was 100%. The “VIOTR pre-emergence efficacy” value (Viola tricolor [20]; Dosage 320 g/ha) was 100%, the “ECHCG pre-emergence efficacy” value (Echinochloa crus-galli [21]; Dosage 80 g/ha) was 100% and the “ECHCG pre-emergence efficacy” value (Echinochloa crus-galli [21]; Dosage 320 g/ha) was 100%. For the same compound, the “ABUTH pre-emergence efficacy (herbicidal activity)” value (Abutilon theophrasti [22]; Dosage 80 g/ha) was 100%, the “LOLMU pre-emergence efficacy” value (Lolium multiflorum [23]; Dosage 80 g/ha) was 100% and the “LOLMU pre-emergence efficacy” value (Lolium multiflorum [23]; Dosage 320 g/ha) was 100%.
